In publication PMC11872507, “Lasso peptides sviceucin and siamycin I exhibit anti-virulence activity and restore vancomycin effectiveness in vancomycin-resistant pathogens” (iScience, 2025):
In brackets after ≈: the same amount, converted by molar mass.

Tests used:
E. faecalis V583 [1] = assay: microbe, parasite or virus in culture; type: cell-based, Enterococcus faecalis
E. faecalis JH2-2 08048 = assay: microbe, parasite or virus in culture; type: cell-based, Enterococcus faecalis; conditions: Enterococcus faecalis, JH2208048, read-out: Vancomycin MIC
Protocol: (§1) The MIC of vancomycin was determined by the microdilution method described in the guidelines of the European Committee on Antimicrobial Susceptibility Testing (EUCAST 2024, v14.0 Breakpoint Tables).[58] For enterococci, GM17 medium was used instead of CAMH medium since enterococci cannot degrade starch, the main carbohydrate of MH medium. 2-fold serial dilutions of the tested antibiotic were performed to obtain concentrations ranging from 0.5 to 512 μg/mL. LP were then added to the wells at the desired concentration. The medium was inoculated with a final inoculum of 5 × 10^5 CFU/mL. The MIC is the lowest concentration that prevents visible in vitro growth.

E. faecalis HIP11704 = assay: microbe, parasite or virus in culture; type: cell-based, Enterococcus faecalis; conditions: Enterococcus faecalis, HIP11704, read-out: Vancomycin MIC
E. faecium 1 231 502 = assay: microbe, parasite or virus in culture; type: cell-based, Enterococcus faecium; conditions: Enterococcus faecium, 1231502, read-out: Vancomycin MIC
E. faecium 1 230 933 = assay: microbe, parasite or virus in culture; type: cell-based, Enterococcus faecium; conditions: Enterococcus faecium, 1230933, read-out: Vancomycin MIC
E. faecalis V583 ΔvanB = assay: microbe, parasite or virus in culture; type: cell-based, Enterococcus faecalis; conditions: Enterococcus faecalis, read-out: Vancomycin MIC
SiaA = assay: Vancomycin MIC, microdilution; type: cell-based, Enterococcus faecalis
Protocol: as §1
(§2) Resistant clones to sviceucin were selected by plating bacteria on GM17 agar medium supplemented with vancomycin at 32 μg/mL and sviceucin at 10 μM. Growth and MIC of vancomycin and sviceucin of the resistant clones were tested. The selection for siamycin I resistance was done by performing serial passages of bacteria in GM17 medium supplemented with vancomycin 10 μg/mL and increasing concentrations of siamycin I from 0.5 to 5 μM. Single nucleotide polymorphism (SNPs) analysis was performed on the sequenced gDNA of each selected resistant mutant.

Svic1 = assay: Vancomycin MIC, microdilution; type: cell-based, Enterococcus faecalis
Protocol: as §1, §2

Svic1 ΔvanB = assay: Vancomycin MIC, microdilution; type: cell-based; conditions: Enterococcus faecalis; vancomycin alone (control)
V583 vanSB^S402I = assay: Vancomycin MIC, microdilution; type: cell-based; conditions: Enterococcus faecalis; vancomycin alone (control)
V583 ΔvanSB = assay: Vancomycin MIC, microdilution; type: cell-based; conditions: Enterococcus faecalis; vancomycin alone (control)
Protocol: The MIC of vancomycin was determined by the microdilution method described in the guidelines of the European Committee on Antimicrobial Susceptibility Testing (EUCAST 2024, v14.0 Breakpoint Tables).[58] […] 2-fold serial dilutions of the tested antibiotic were performed to obtain concentrations ranging from 0.5 to 512 μg/mL. LP were then added to the wells at the desired concentration. The medium was inoculated with a final inoculum of 5 × 10^5 CFU/mL. The MIC is the lowest concentration that prevents visible in vitro growth.

SiaB = assay: Vancomycin MIC, spontaneous mutants; type: cell-based; conditions: Enterococcus faecalis; vancomycin alone; CcpA D121V
Protocol: as §1, §2

SiaC = assay: Vancomycin MIC, spontaneous mutants; type: cell-based; conditions: Enterococcus faecalis; vancomycin alone; CcpA A148V
Protocol: as §1, §2

SiaD = assay: Vancomycin MIC, spontaneous mutants; type: cell-based; conditions: Enterococcus faecalis; vancomycin alone; CcpA A89P
Protocol: as §1, §2

SiaE = assay: Vancomycin MIC, spontaneous mutants; type: cell-based; conditions: Enterococcus faecalis; vancomycin alone; frameshift in ccpA
Protocol: as §1, §2

Svic2 = assay: Vancomycin MIC, spontaneous mutants; type: cell-based; conditions: Enterococcus faecalis; vancomycin alone; nonsense mutation in atpA
Protocol: as §1, §2

Svic3 = assay: Vancomycin MIC, spontaneous mutants; type: cell-based; conditions: Enterococcus faecalis; vancomycin alone; nonsense mutation in atpF
Protocol: as §1, §2

Svic4 = assay: Vancomycin MIC, spontaneous mutants; type: cell-based; conditions: Enterococcus faecalis; vancomycin alone; atpD RBS modification
Protocol: as §1, §2

[2] = system: vanYB in E. faecalis V583; assay: vanYB expression by RT-qPCR; type: cell-based, Enterococcus faecalis; conditions: vancomycin 1 μg/mL alone
Protocol: (§3) For gelE gene expression measurements, bacteria were cultured in GM17 medium supplemented with the 1:1 water:methanol formulation or either sviceucin at 10 μM, or siamycin I at 1 μM. Cultures were incubated at 37°C until reaching OD600 of 0.5. For vanY gene expression measurements, bacteria were cultured in GM17 medium supplemented with either vancomycin at 1 μg/mL or sviceucin at 10 μM and vancomycin at 1 μg/mL at 37°C to induce the expression of van genes until reaching OD600 of 0.5. Bacteria were recovered by centrifugation at 4200 RCF for 2 min. Once the supernatant was discarded, the pellets were stored at −80°C. Pellets were resuspended in TE buffer or ML lysis buffer, depending on kit used, and transferred in Lysis Matrix B Tubes (MP Biomedicals, USA) before cell lysis with a FastPrep-24 5G (2 × 40 s at 6 m/s, 5 min on ice in-between cycles) (MP Biomedicals, USA). After bead-beating lysis, RNA extraction was performed using Direct-Zol RNA Miniprep kit (Zymo Research, USA) for gelE gene expression measurements or NucleoSpin^Ⓡ miRNA Miniprep kit (Macherey-Nagel, Germany) for vanY gene expression measurements, according to the manufacturers’ instructions. Retrotranscription was performed using QuantiTect Reverse transcription (QIAGEN, Germany). qPCR on cDNA was performed with GoTaq qPCR (Promega, USA). […] Data were analyzed with CFX Manager software (Biorad, USA).

vanYB in Svic1 = assay: vanYB expression by RT-qPCR; type: cell-based, Enterococcus faecalis; conditions: vancomycin 1 μg/mL alone
Protocol: as §3

E. faecalis V583 [3] = assay: Vancomycin MIC with nanoemulsions; type: cell-based, Enterococcus faecalis; conditions: with blank NEs
Protocol: The formulation of the nanoemulsions was based on the spontaneous nanoemulsification method previously described by Séguy et al.[41] and transposed to lasso peptides. The present nanoemulsions were developed from anhydrous mixtures composed of excipients already described in the European Pharmacopeia (World Health Organization, 2018) and already proven to be hemocompatible on human whole blood. Monodisperse nanoemulsions could be formulated at a drug payload of 400 μg/mL for siamycin I. At these concentrations, the drug added to the anhydrous mixture during the formulation process appeared to be completely dissolved. After the addition of the aqueous phase, a homogeneous colloidal suspension was observed. The nanoemulsions were characterized in terms of granulometric and physicochemical properties (Table S6). The hydrodynamic diameter, zeta potential, and PDI were not changed relative to the blank nanoemulsions, remaining lower than 0.25, indicating the presence of a monodispersed population.

[4] = Enterococcus faecalis, read-out: Vancomycin MIC

## CN[C@H](CC(C)C)C(=O)N[C@H]1C(=O)N[C@@H](CC(N)=O)C(=O)N[C@H]2C(=O)N[C@H]3C(=O)N[C@H](C(=O)N[C@H](C(=O)O)c4cc(O)cc(O)c4-c4cc3ccc4O)[C@H](O)c3ccc(c(Cl)c3)Oc3cc2cc(c3O[C@@H]2O[C@H](CO)[C@@H](O)[C@H](O)[C@H]2O[C@H]2C[C@](C)(N)[C@H](O)[C@H](C)O2)Oc2ccc(cc2Cl)[C@H]1O [Vancomycin]
E. faecalis V583 [1]; Enterococcus faecalis, V583, read-out: Vancomycin MIC
  MIC: 32 µg/mL (≈ 22.1 µM)
E. faecalis V583 [1]; vancomycin alone (control, 1:1 water:methanol formulation), GM17, 5 × 10^5 CFU/mL, VanB
  Vancomycin MIC: 32 µg/mL
E. faecalis JH2-2 08048
  MIC: 64 µg/mL (≈ 44.2 µM)
E. faecalis HIP11704
  MIC: 1020 µg/mL (≈ 707 µM)
E. faecium 1 231 502
  MIC: 128 µg/mL (≈ 88.3 µM)
E. faecium 1 230 933
  MIC: 512 µg/mL (≈ 353 µM)
E. faecalis V583 ΔvanB
  MIC: 2 µg/mL (≈ 1.38 µM)
SiaA; [4]
  MIC: 128 µg/mL (≈ 88.3 µM)
SiaA; vancomycin alone
  fold increase of the MIC of vancomycin vs wild-type: 4 fold
SiaA; {}
  Vancomycin MIC: 128 µg/mL
Svic1; [4]
  MIC: 128 µg/mL (≈ 88.3 µM)
Svic1; vancomycin alone
  fold increase of the MIC of vancomycin vs wild-type: 4 fold
Svic1; {}
  Vancomycin MIC: 128 µg/mL
Svic1 ΔvanB
  MIC: 2 µg/mL (≈ 1.38 µM)
V583 vanSB^S402I
  MIC: 128 µg/mL (≈ 88.3 µM)
V583 ΔvanSB
  MIC: 2 µg/mL (≈ 1.38 µM)
SiaB
  MIC: 64 µg/mL (≈ 44.2 µM)
SiaC
  MIC: 64 µg/mL (≈ 44.2 µM)
SiaD
  MIC: 64 µg/mL (≈ 44.2 µM)
SiaE
  MIC: 32 µg/mL
Svic2
  MIC: 256 µg/mL (≈ 177 µM)
Svic3
  MIC: 256 µg/mL (≈ 177 µM)
Svic4
  MIC: 256 µg/mL (≈ 177 µM)
[2]
  vanYB expression induced by vancomycin, in words: strongly induced
vanYB in Svic1
  vanYB expression induced by vancomycin, in words: strongly induced
E. faecalis V583 [3]
  Vancomycin MIC: 32
